Laboratory results: patent publication US20190216956A1, “COMPOSITIONS FOR RADIOTHERAPY AND USES THEREOF” (priority 2016, published 2019)
Structures can show the parent of a compound that is named as a salt.

What was measured:
[1] = Talc bound to HRP- and cold-Avidin, 48 hours in PBS containing 10% FBS (Example 14); assay type: physicochemical
Description: Purpose: To check how strong the conjugate of hot/cold Avidin to Talc is. […] Absorbance will be checked twice—once before washing with PBS containing 10% FBS and after 48 hours, washing will be done.
6. Weigh 8 mg of Avidin (cold Avidin), then resuspend it in 2 mL of PBS containing 40 ng/mL of “hot” Avidin. So the solution will now be 40 ng/mL hot Avidin+4 mg/mL of Cold Avidin. Label this tube as #1.
14. […] Two identical microplates need to be set up, labeling them as: plate #1 and plate #2. Design of the plate:
3. Wash both plates 3× with 300 μL PBS.
5. […] Mix constantly, cover plate with Aluminum foil.
6. Add 100 μL of TMB to samples in plate #1.
9. Read absorbance at 450 nm using the plate reader.
3. Collect 100 μL supernatant from samples except native controls and load on same plate.
4. Wash plate except supernatant samples 3× with 300 μL PBS.
6. Add 100 μL of TMB to all samples in plate#2.

NCI-2052H cells = assay: Cytotoxicity assay (MTS) of NCI-2052H cells: bleomycin, mitomycin, doxorubicin, paclitaxel, talc, talc bound to drugs (Example 23); assay type: cell-based; conditions: for Average readings: cells + drug, bleomycin: absorbance 490 nm
NCI-28H cells = assay: Cytotoxicity assay (MTS) of NCI-28H cells treated with bleomycin, talc, talc bound to bleomycin (Example 16); assay type: cell-based; conditions: 72 hrs
Description: Read absorbance (MTS assay) and calculate cells survival rate.
1. […] 500,000 cells/670,000=0.75 ml of cells/media mix need to take from flask and transfer to 9.25 ml media. […] Gently mix.
1. Bring back tubes from cold room to laboratory. Centrifuge 3200 rpm for 3 min. Take out supernatant.
3. Wash cells 2×300 μL DPBS, remove final wash.
6. Incubate plate 1 hr at 37° C., 5% CO2.

Avidin: Avidin from egg white (Sigma); 60,000 m.w. egg-white protein that binds biotin
stability of binding of Avidin to talc [1]: unchanged at 48 hours

Cc1c(N)nc([C@H](CC(N)=O)NC[C@H](N)C(N)=O)nc1C(=O)N[C@H](C(=O)N[C@H](C)[C@@H](O)[C@H](C)C(=O)N[C@H](C(=O)NCCc1nc(-c2nc(C(=O)NCCC[S+](C)C)cs2)cs1)[C@@H](C)O)[C@@H](O[C@@H]1OC(CO)[C@@H](O)C(O)C1O[C@H]1OC(CO)[C@@H](O)C(OC(N)=O)C1O)c1c[nH]cn1 (stereo partly shown) [Bleomycin, Bleomycin sulfate Streptomyces verticillus]
% survival from untreated cells (NCI-2052H cells; Bleomycin 0.24 ug/ml): 101.64%
% survival from untreated cells (NCI-2052H cells; Bleomycin 0.97 ug/ml): 97.34%
% survival from untreated cells (NCI-2052H cells; Bleomycin 3.9 ug/ml): 88.64%
% survival from untreated cells (NCI-2052H cells; Bleomycin 15.6 ug/ml): 51.72%
% survival from untreated cells (NCI-2052H cells; Bleomycin 62.5 ug/ml): 38.34%
% survival from untreated cells (NCI-2052H cells; Bleomycin 250 ug/ml): 20.89%
% survival from untreated cells (NCI-2052H cells; Bleomycin 1000 ug/ml): 14.62%
Average readings: cells + drug, bleomycin (NCI-2052H cells; bleomycin 0.24 μg/ml): 1.3454
Average readings: cells + drug, bleomycin (NCI-2052H cells; bleomycin 0.97 μg/ml): 1.2884
Average readings: cells + drug, bleomycin (NCI-2052H cells; bleomycin 3.9 μg/ml): 1.1733
Average readings: cells + drug, bleomycin (NCI-2052H cells; bleomycin 15.6 μg/ml): 0.6846
Average readings: cells + drug, bleomycin (NCI-2052H cells; bleomycin 62.5 μg/ml): 0.5075
Average readings: cells + drug, bleomycin (NCI-2052H cells; bleomycin 250 μg/ml): 0.2766
Average readings: cells + drug, bleomycin (NCI-2052H cells; bleomycin 1000 μg/ml): 0.1935
% survival NCI-28H cells after treatment with BLEOMYCIN (NCI-28H cells; 0.004 ug/ml): 92.41%
% survival NCI-28H cells after treatment with BLEOMYCIN (NCI-28H cells; 0.015 ug/ml): 88.25%
% survival NCI-28H cells after treatment with BLEOMYCIN (NCI-28H cells; 0.06 ug/ml): 93.38%
% survival NCI-28H cells after treatment with BLEOMYCIN (NCI-28H cells; 0.24 ug/ml): 91.86%
% survival NCI-28H cells after treatment with BLEOMYCIN (NCI-28H cells; 0.97 ug/ml): 86.19%
% survival NCI-28H cells after treatment with BLEOMYCIN (NCI-28H cells; 3.9 ug/ml): 71.05%
% survival NCI-28H cells after treatment with BLEOMYCIN (NCI-28H cells; 15.6 ug/ml): 74.60%
% survival NCI-28H cells after treatment with BLEOMYCIN (NCI-28H cells; 62.5 ug/ml): 68.76%
% survival NCI-28H cells after treatment with BLEOMYCIN (NCI-28H cells; 250 ug/ml): 47.13%
% survival NCI-28H cells after treatment with BLEOMYCIN (NCI-28H cells; 1000 ug/ml): 24.92%
